{"source": "patent US20150024055A1", "about": "“ENHANCED IMMEDIATE RELEASE FORMULATIONS OF TOPIRAMATE” (Supernus Pharmaceuticals, Inc., priority 2006, published 2015)", "origin": "cited, not measured here", "key": {"[1]": {"details": "in vivo"}}, "data": [{"smiles": "CC1(C)O[C@@H]2[C@@H](CO[C@@]3(COS(N)(=O)=O)OC(C)(C)O[C@@H]23)O1", "note": "[Topiramate]", "values": [{"measurement": "solubility in organic solvents", "setting": "acetone, dimethylsulfoxide and ethanol", "value": "soluble"}, {"measurement": "solubility in alkaline solutions", "setting": "alkaline solutions containing sodium hydroxide or sodium phosphate", "value": "soluble"}, {"measurement": "solubility of topiramate in water", "setting": "water, room temperature", "value": "about 9.8 mg/ml"}, {"measurement": "time to reach peak plasma levels", "setting": "[1]", "value": "about two"}]}]}
